From paper PMC10650850, “Discovery, Structure–Activity Relationship and In Vitro Anticancer Activity of Small-Molecule Inhibitors of the Protein–Protein Interactions between AF9/ENL and AF4 or DOT1L” (Cancers, 2023)
“Also recorded” adds a separate entry of the source. Structures can show the parent of a compound that is named as a salt. No end group written: not given here. *: point of attachment. Biotin = O=C1N[C@H]2[C@H](CS[C@H]2CCCCC(=O)*)N1; Ahx = NCCCCCC(=O)O

Assays:
AF9-DOT1L interaction [1] = molecular target: T1, AF9-DOT1L interaction (Homo sapiens, UniProt P42568); assay: AlphaLisa assay, AF9-DOT1L interaction; assay type: binding; details: for IC50: MBP-protein 5 nM, biotinylated peptide 40 nM, 3 independent experiments with standard deviation, read-out: IC50 (μM) against the AF9-DOT1L interaction
T1 construct: human AF9 AHD domain (475–568); made in house; host or cells: E. coli BL21(DE3)
T1 sequence (P42568 475-568): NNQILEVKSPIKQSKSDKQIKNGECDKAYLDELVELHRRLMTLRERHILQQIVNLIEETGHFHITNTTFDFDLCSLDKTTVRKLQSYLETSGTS
How it was run: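 AlphaLisa proximity assay using MBP-tagged human AF9 AHD (475–568, 5 nM) on anti-MBP acceptor beads and biotinylated DOT1L peptide (40 nM) on streptavidin donor beads, in PBS with 0.5% BSA, pH 7.5. Compound titrated; IC50 from dose-response fits of 3 independent experiments.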

[2] = molecular target: AF9/ENL-DOT1L interaction; set-up: method as in PMID 30258537, PMID 35612819; details: printed in Chart 1; ref [33],[34]; cited from earlier work
ENL-AF4 = molecular target: T2, ENL-AF4 (Homo sapiens, UniProt Q03111); assay: AlphaLisa assay, ENL-AF4 interaction; assay type: binding; details: ENL AHD, AF4 peptide
T2 construct: ENL AHD domain (489–559); made in house; host or cells: E. coli BL21(DE3)
T2 sequence (Q03111 489-559): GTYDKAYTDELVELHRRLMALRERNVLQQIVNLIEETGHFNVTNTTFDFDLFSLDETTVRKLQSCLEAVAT
Description: (§1) Transcription cofactor AF4, which is the most frequent (~35%) fusion protein in MLL1-r leukemia, is another binding partner of AF9/ENL [35, 36, 37]. The AF9/ENL-AF4 interactions are essential for the formation of SEC, which causes aberrant gene expression in MLL-r leukemia and other AMLs. Using our previously developed AlphaLisa assays, selected compounds were tested for their ability to inhibit the PPIs between AF9 or ENL and AF4.
(§2) The cDNA for the human AF9 AHD domain (475–568) and ENL AHD domain (489–559) was synthesized (by Genscript, Piscataway, NJ, USA) and inserted into the pMAL c5X expression plasmid. The DOT1L peptide (Biotin-AHX-[…]) and AF4 peptide (Biotin-AHX-[…]) for the Alpha assay were purchased from Genscript.
(§3) Alpha assays were developed in our previous publication, using a Perkin-Elmer AlphaLisa anti-MBP kit, which contains streptavidin donor beads and anti-MBP acceptor beads. Briefly, the assay was performed using a MBP-protein (5 nM), a biotinylated peptide (40 nM), and increasing concentrations of a compound in 25 µL buffer (PBS with 0.5% BSA, pH 7.5) in 384-well plates according to the manufacturer’s protocol and measured with a Tecan SPARK microplate reader. Data were imported into Prism (version 5.0), and IC50 values from 3 independent experiments with standard deviation were obtained by using a standard dose-response curve fitting.

NB4 = assay: Antiproliferation assay (XTT), NB4; assay type: cell-based; details: Homo sapiens, NB-4, 168 h, 7 days incubation, read-out: Antitumor activity EC50, NB4;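 note: EC50 values in Micromolar not Nanomolar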
Description: (§4) The antitumor activity of selected compounds was evaluated against the proliferation of a panel of MLL-r leukemia and other cancer cells. MV4;11 and Molm-13 leukemia cells contain MLL-AF4 and MLL-AF9 fusion oncogenes, respectively. NB4 and HL60 are AML cells without MLL translocation. Hela (cervical cancer) is a solid tumor cell line. […] The anti-proliferation activity of these compounds against other AML cells (i.e., NB4 and HL60) might be due to their inhibition of SEC-mediated gene expression (e.g., Myc), as observed in our previous studies.
(§5) Proliferation inhibition assays were performed using an XTT assay kit (Biotium, Fremont, CA, USA) following our previous methods. The antiproliferation EC50 values were determined using Prism 5 and the reported results were the mean values of at least three independent experiments. The incubation time for all compounds was 7 days.

AF9-AF4 = molecular target: T3, AF9-AF4 (Homo sapiens, UniProt P42568); assay: AlphaLisa assay, AF9-AF4 interaction; assay type: binding; details: AF9 AHD, AF4 peptide
T3 construct: human AF9 AHD domain (475–568); made in house; host or cells: E. coli BL21(DE3)
T3 sequence (P42568 475-568): T1 sequence (P42568 475-568)
Description: as §1, §2, §3

Hela = assay: Antiproliferation assay (XTT), Hela; assay type: cell-based; details: Homo sapiens, HeLa, 168 h, 7 days incubation, read-out: Antitumor activity EC50, Hela
Description: as §4, §5

MV4;11 = assay: Antiproliferation assay (XTT), MV4;11; assay type: cell-based; details: Homo sapiens, MV4-11, 168 h, 7 days incubation, read-out: Antitumor activity EC50, MV4;11;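 note: EC50 values in Micromolar not Nanomolar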
Description: as §4, §5

HL60 = assay: Antiproliferation assay (XTT), HL60; assay type: cell-based; details: Homo sapiens, HL-60, 168 h, 7 days incubation, read-out: Antitumor activity EC50, HL60;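 note: EC50 values in Micromolar not Nanomolar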
Description: as §4, §5

AF9-DOT1L interaction [3] = molecular target: T1, AF9-DOT1L interaction; assay: Pull-down assay of AF9 AHD with DOT1L peptide-coated beads; assay type: binding
Excerpt: A pull-down assay was used to confirm that the strong inhibitors could disrupt the AF9-DOT1L interaction. Streptavidin agarose beads coated with biotinylated DOT1L peptide were used to pull-down the protein AF9 AHD in the solution, followed by thorough washing, SDS-PAGE (sodium dodecyl sulfate-polyacrylamide gel electrophoresis) and Western blotting to visualize and quantitate the protein. […] This alternative, non-optical method confirmed that compounds 24 and 50 can inhibit the PPI between AF9 and DOT1L.
The pull-down assays were conducted following our previous method. Briefly, the biotinylated DOT1L peptide (0.25 mg/mL) was incubated with streptavidin agarose beads (20 μL) in PBS containing 0.1% Triton X-100 (400 µL) for 3h to yield, after washing, DOT1L-coated beads. MBP-tagged AF9 AHD (0.2 µM, 400 µL) was pre-incubated with a compound for 1 h before adding to the beads. After 6 h incubation at 4 °C, the beads were collected, thoroughly washed, and subjected to SDS-PAGE and analyzed by Western blot using an MBP antibody (#2396, Cell signaling, Danvers, MA, USA).

Molm13 = assay: Antiproliferation assay (XTT), Molm-13; assay type: cell-based; details: Homo sapiens, MOLM-13, 168 h, 7 days incubation, read-out: Antitumor activity EC50, Molm13;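 note: EC50 values in Micromolar not Nanomolar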
Description: as §4, §5

[4] = test system: panel of MLL-r leukemia and other cancer cells; assay: Antiproliferation assay (XTT), panel of MLL-r leukemia and other cancer cells; assay type: cell-based; details: 168 h, MV4;11, Molm-13, NB4 and HL60 cells, 7 days, read-out: Antitumor activity EC50, span over MLL-r leukemia and AML cells
Description: as §4, §5

HoxA9, Meis1 and Myc = assay: RT-qPCR of MLL target genes in Molm-13 cells; assay type: cell-based; details: 1 and 5 µM, 4 days
Excerpt: The major function of the SEC is to promote transcription elongation for its bound genes. Because of the high affinity of the PPIs between AF9/ENL and AF4, onco-MLL (e.g., MLL-AF4 or MLL-AF9/-ENL) recruits SEC to MLL target genes, facilitates their expression, and eventually causes leukemia initiation. Next, we investigated whether selected inhibitors of these PPIs can inhibit the expression of HoxA9, Meis1 and Myc, which are MLL target genes and their high expression is characteristic of MLL-r leukemia. In addition, high expression of Myc is also observed in a broad range of AMLs and other cancers and is considered a driving factor for oncogenesis. To this end, RNAs from the control and compound-treated Molm-13 cells (harboring MLL-AF9) were extracted and subjected to quantitative PCR. […] RNA extraction and RT-qPCR were performed following our previous method. 10^5 cells/mL were incubated with a compound for 4 days and the RNA was extracted using an RNeasy mini kit (#74104, Qiagen, Germantown, MD, USA). 100–1000 ng of total RNA was reverse transcribed using iScript™ Reverse Transcription Supermix (Bio-Rad, Hercules, CA, USA), using the manufacturer’s protocol. Quantitative real-time PCR was carried out using Fast SYBR Green Master Mix (Applied Biosystems, Waltham, MA, USA) according to the manufacturer’s instructions. Measurements were performed in triplicate using GAPDH as the reference gene. Real-time PCR was performed using the Biosystems Step One Plus detection system. The following sequences of primers were used: […]

[5] = molecular target: T4, MBP-tagged AF9 AHD domain (475–568) (human, UniProt P42568 475-568); assay: AlphaScreen or HTRF; AlphaLisa (Perkin-Elmer anti-MBP kit): MBP-protein (5 nM) on anti-MBP acceptor beads, biotinylated peptide (40 nM) on streptavidin donor beads, increasing concentrations of a small-molecule compound, 25 µL PBS with 0.5% BSA, pH 7.5, 384-well plates; details: both partners purified
T4 construct: AF9 (MLLT3), human, C-terminal AHD domain, residues 475-568; cDNA synthesized by Genscript and inserted into pMAL c5X; Expressed from pMAL c5X; the MBP tag is used for capture on anti-MBP acceptor beads and for detection by an MBP antibody; also called MBP-protein; source: E. coli BL21(DE3), purified (amylose resin, size exclusion Superdex 200); not shown: MBP, N-terminal, kept
T4 sequence (looked up): T1 sequence (P42568 475-568)

[6] = molecular target: T5, MBP-tagged ENL AHD domain (489–559) (human, UniProt Q03111 489-559); assay: as above; details: both partners purified
T5 construct: ENL (MLLT1), human, C-terminal AHD domain, residues 489-559; cDNA synthesized by Genscript and inserted into pMAL c5X; Expressed from pMAL c5X; the MBP tag is used for capture on anti-MBP acceptor beads; also called MBP-protein; source: E. coli BL21(DE3), purified (amylose resin, size exclusion Superdex 200); not shown: MBP, N-terminal, kept
T5 sequence (looked up): T2 sequence (Q03111 489-559)

Question: Which IC50 (AF9-DOT1L interaction [1]) does the source give for `N#Cc1cccc(-c2ccc3cc(C(=O)NCC4CCNCC4)[nH]c3c2)c1` [Compound 10, 6-(3-Cyanophenyl)-N-(piperidin-4-ylmethyl)-1H-indole-2-carboxamide hydrochloride] here?
Answer: The IC50 was 2.1 µM.

Question: What about the inhibition at 5 µM (AF9-DOT1L interaction [1]; compound at 5 μM, read-out: % Inhibition at 5 μM against the AF9-DOT1L interaction) of the same molecule?
Answer: Its inhibition at 5 µM is 0%.

Question: What about the Ki [2] of the same molecule?
Answer: Its Ki is 0.009 µM.

Question: For `Cl.O=C(NCC1CCNCC1)c1cc2cc(-c3ccc(N4CCCCC4)cc3)ccc2s1` [Compound 50, 5-(4-(Piperidin-1-yl)phenyl)-N-(piperidin-4-ylmethyl)-benzo[b]thiophene-2-carboxamide hydrochloride], which IC50 (ENL-AF4) is on record?
Answer: The IC50 was 3.4 ± 0.4 µM.

Question: And the EC50 (NB4)?
Answer: Its EC50 is 9.4 ± 1.2 µM.

Question: What about the IC50 (AF9-AF4) of the same molecule?
Answer: Its IC50 is 2.5 ± 0.3 µM.

Question: What about the IC50 (AF9-DOT1L interaction [1]) of the same molecule?
Answer: The IC50 was 2.5 ± 0.2 µM.

Question: And the EC50 (Hela)?
Answer: Its EC50 is 25 ± 2.5 µM.

Question: And the EC50 (MV4;11)?
Answer: The EC50 was 8.2 ± 1.2 µM.

Question: And the EC50 (HL60)?
Answer: The EC50 was 9 ± 0.9 µM.

Question: What about the remaining activity at 10 µM (AF9-DOT1L interaction [3]; Western blot, compound 10 μM, read-out: AF9 AHD % Control) of the same molecule?
Answer: Its remaining activity at 10 µM is 27%.

Question: What about the remaining activity at 50 µM (AF9-DOT1L interaction [3]; Western blot, compound 50 μM, read-out: AF9 AHD % Control) of the same molecule?
Answer: The remaining activity at 50 µM was 29%.

Question: What about the “Effect on AF9 AHD bound to DOT1L peptide-coated beads (in words)” value (AF9-DOT1L interaction [3]; up to 50 µM) of the same molecule?
Answer: The value was “significantly reduced the amounts of AF9 AHD; also recorded: dose-dependently reduce AF9 AHD”.

Question: And the EC50 (Molm13)?
Answer: The EC50 was 5.1 ± 0.2 µM.

Question: And the EC50 [4]?
Answer: Its EC50 is 5.1 to 9.4 µM.

Question: What about the “Expression of MLL target genes HoxA9, Meis1 and Myc (in words)” value (HoxA9, Meis1 and Myc) of the same molecule?
Answer: Its value is “inhibited expression; also recorded: able to reduce the expression”.

B1: DOT1L peptide (Biotin-AHX-NKLPVSIPLASVVLPSRAERARST) (peptide)
peptide: {Biotin-Ahx}-NKLPVSIPLASVVLPSRAERARST
notes: stretch of histone H3K79 methyltransferase DOT1L with an LxVxIxLxxV/L motif; also called biotinylated DOT1L peptide; source: synthetic peptide, bought: Genscript
Question: Does B1 bind [5]?
Answer: Result: binds

B2: AF4 peptide (Biotin-AHX-QSLMVKITLDLLSRIPQPPGK) (peptide)
peptide: {Biotin-Ahx}-QSLMVKITLDLLSRIPQPPGK
notes: stretch of transcription cofactor AF4 (AFF1) with an LxVxIxLxxV/L motif; also called biotinylated AF4 peptide; source: synthetic peptide, bought: Genscript
Question: Does B2 bind [6]?
Answer: Result: binds

Question: Does B2 bind [5]?
Answer: Result: binds
